# Assay results taken from patent US6737383B1, “Herbicidal oxadiazolidines” (priority 1999, dated 2004).
# What was measured:
# [1] = system: bedstraw; assay: Test B pre/postemergence bedstraw; type: in vivo, Galium aparine
# Procedure, shortened: (§1)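 Test chemicals in a non-phytotoxic solvent mixture with surfactant were sprayed preemergence onto planted seeds and postemergence onto plants 2 to 18 cm tall (1- to 4-leaf stage). After twelve to sixteen days in a greenhouse, injury was visually rated against untreated controls from 0 (no effect) to 10 (complete control).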
# [2] = system: blackgrass; assay: Test B pre/postemergence blackgrass; type: in vivo, Alopecurus myosuroides
# Procedure, shortened: as §1
# [3] = system: surinam grass; assay: Test B pre/postemergence surinam grass; type: in vivo, Brachiaria decumbens
# Procedure, shortened: as §1
# [4] = system: corn; assay: Test B pre/postemergence corn; type: in vivo, Zea mays
# Procedure, shortened: as §1
# [5] = system: crabgrass; assay: Test B pre/postemergence crabgrass; type: in vivo, Digitaria sanguinalis
# Procedure, shortened: as §1
# [6] = system: giant foxtail; assay: Test B pre/postemergence giant foxtail; type: in vivo, Setaria faberii
# Procedure, shortened: as §1
# [7] = system: morningglory; assay: Test B pre/postemergence morningglory; type: in vivo, Ipomoea hederacea
# Procedure, shortened: as §1
# [8] = system: rape; assay: Test B pre/postemergence rape; type: in vivo, Brassica napus
# Procedure, shortened: as §1
# [9] = system: soybean; assay: Test B pre/postemergence soybean; type: in vivo, Glycine max
# Procedure, shortened: as §1
# [10] = system: velvetleaf; assay: Test B pre/postemergence velvetleaf; type: in vivo, Abutilon theophrasti
# Procedure, shortened: as §1
# [11] = system: wheat; assay: Test B pre/postemergence wheat; type: in vivo, Triticum aestivum
# Procedure, shortened: as §1
# [12] = system: wild oat; assay: Test B pre/postemergence wild oat; type: in vivo, Avena fatua
# Procedure, shortened: as §1
# [13] = system: purple nutsedge; assay: Test B pre/postemergence purple nutsedge; type: in vivo, Cyperus rotundus
# Procedure, shortened: as §1
# [14] = system: rice; assay: Test B flood test rice; type: in vivo, Oryza sativa
# Procedure, shortened: (§2)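 Plants were grown to the 2-leaf stage before treatment with test chemical, then held in a greenhouse for twelve to sixteen days. Injury was visually rated against untreated controls on a 0–10 scale, where 0 is no effect and 10 is complete control.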
# [15] = system: smallflower flatsedge; assay: Test B flood test smallflower flatsedge; type: in vivo, Cyperus difformis
# Procedure, shortened: as §2
# [16] = system: duck salad; assay: Test B flood test duck salad; type: in vivo, Heteranthera limosa
# Procedure, shortened: as §2
# [17] = Postemergence, Rate 62 g/ha, scale 0 to 10, 0 is no effect, 10 is complete control
# [18] = Postemergence, Rate 250 g/ha, scale 0 to 10, 0 no effect, 10 complete control
# [19] = Preemergence, Rate 31 g/ha, visual rating, scale 0 to 10 (0 no effect, 10 complete control)
# [20] = Preemergence, Rate 62 g/ha, scale 0 to 10, 0 is no effect, 10 is complete control
# [21] = Preemergence, Rate 125 g/ha, scale 0 to 10 (0 no effect, 10 complete control)
# [22] = Preemergence, Rate 250 g/ha, scale of 0 to 10 where 0 is no effect and 10 is complete control
# [23] = Rate 31 g/ha, Postemergence, scale 0 to 10
# [24] = Rate 125 g/ha, Postemergence, scale 0 to 10, 0 no effect, 10 complete control
# [25] = Rate 31 g/ha, Postemergence section (flood test species), scale 0 to 10
# [26] = Rate 125 g/ha, Postemergence section (flood test species), scale 0 to 10, 0 no effect, 10 complete control
# [27] = flood test, listed under Postemergence, Rate 250 g/ha, scale 0 to 10, 0 no effect, 10 complete control
structure (smiles),measurement,setting,value
CC(C)N(C(=O)n1oc(=O)n(-c2ccc(F)cc2F)c1=O)c1ccc(F)cc1F [Compound 22],Bedstraw plant response rating,[1]; [17],1
same,Bedstraw plant response rating,[1]; [18],4
same,Bedstraw plant response rating,[1]; [19],0
same,"Plant response rating, Bedstraw",[1]; [20],0
same,"Plant response rating, Bedstraw",[1]; [21],0
same,"Plant response rating, Bedstraw",[1]; [22],4
same,Bedstraw plant response rating,[1]; [23],0
same,Bedstraw plant response rating,[1]; [24],2
same,Blackgrass plant response rating,[2]; [17],1
same,Blackgrass plant response rating,[2]; [18],3
same,Blackgrass plant response rating,[2]; [19],0
same,"Plant response rating, Blackgrass",[2]; [20],0
same,"Plant response rating, Blackgrass",[2]; [21],4
same,"Plant response rating, Blackgrass",[2]; [22],6
same,Blackgrass plant response rating,[2]; [23],0
same,Blackgrass plant response rating,[2]; [24],1
same,B. signalgrass plant response rating,[3]; [17],0
same,B. signalgrass plant response rating,[3]; [18],2
same,B. signalgrass plant response rating,[3]; [19],0
same,"Plant response rating, B. signalgrass",[3]; [20],0
same,"Plant response rating, B. signalgrass",[3]; [21],2
same,"Plant response rating, B. signalgrass",[3]; [22],4
same,B. signalgrass plant response rating,[3]; [23],0
same,B. signalgrass plant response rating,[3]; [24],0
same,Corn plant response rating,[4]; [17],0
same,Corn plant response rating,[4]; [18],0
same,Corn plant response rating,[4]; [19],0
same,"Plant response rating, Corn",[4]; [20],0
same,"Plant response rating, Corn",[4]; [21],0
same,"Plant response rating, Corn",[4]; [22],2
same,Corn plant response rating,[4]; [23],0
same,Corn plant response rating,[4]; [24],0
same,Crabgrass plant response rating,[5]; [17],0
same,Crabgrass plant response rating,[5]; [18],9
same,Crabgrass plant response rating,[5]; [19],3
same,"Plant response rating, Crabgrass",[5]; [20],3
same,"Plant response rating, Crabgrass",[5]; [21],4
same,"Plant response rating, Crabgrass",[5]; [22],8
same,Crabgrass plant response rating,[5]; [23],0
same,Crabgrass plant response rating,[5]; [24],4
same,Giant foxtail plant response rating,[6]; [17],0
same,Giant foxtail plant response rating,[6]; [18],4
same,Giant foxtail plant response rating,[6]; [19],3
same,"Plant response rating, Giant foxtail",[6]; [20],3
same,"Plant response rating, Giant foxtail",[6]; [21],4
same,"Plant response rating, Giant foxtail",[6]; [22],7
same,Giant foxtail plant response rating,[6]; [23],0
same,Giant foxtail plant response rating,[6]; [24],2
same,Morningglory plant response rating,[7]; [17],0
same,Morningglory plant response rating,[7]; [18],2
same,Morningglory plant response rating,[7]; [19],0
same,"Plant response rating, Morningglory",[7]; [20],0
same,"Plant response rating, Morningglory",[7]; [21],0
same,"Plant response rating, Morningglory",[7]; [22],0
same,Morningglory plant response rating,[7]; [23],0
same,Morningglory plant response rating,[7]; [24],2
same,Rape plant response rating,[8]; [17],0
same,Rape plant response rating,[8]; [18],0
same,Rape plant response rating,[8]; [19],0
same,"Plant response rating, Rape",[8]; [20],0
same,"Plant response rating, Rape",[8]; [21],3
same,"Plant response rating, Rape",[8]; [22],3
same,Rape plant response rating,[8]; [23],0
same,Rape plant response rating,[8]; [24],0
same,Soybean plant response rating,[9]; [17],3
same,Soybean plant response rating,[9]; [18],4
same,Soybean plant response rating,[9]; [19],0
same,"Plant response rating, Soybean",[9]; [20],0
same,"Plant response rating, Soybean",[9]; [21],0
same,"Plant response rating, Soybean",[9]; [22],0
same,Soybean plant response rating,[9]; [24],3
same,Velvetleaf plant response rating,[10]; [17],0
same,Velvetleaf plant response rating,[10]; [18],0
same,Velvetleaf plant response rating,[10]; [19],0
same,"Plant response rating, Velvetleaf",[10]; [20],0
same,"Plant response rating, Velvetleaf",[10]; [21],0
same,"Plant response rating, Velvetleaf",[10]; [22],1
same,Velvetleaf plant response rating,[10]; [24],0
same,Wheat plant response rating,[11]; [17],0
same,Wheat plant response rating,[11]; [18],0
same,Wheat plant response rating,[11]; [19],0
same,"Plant response rating, Wheat",[11]; [20],0
same,"Plant response rating, Wheat",[11]; [21],0
same,"Plant response rating, Wheat",[11]; [22],0
same,Wheat plant response rating,[11]; [24],0
same,Wild oats plant response rating,[12]; [17],0
same,Wild oats plant response rating,[12]; [18],1
same,Wild oats plant response rating,[12]; [19],0
same,"Plant response rating, Wild oats",[12]; [21],0
same,"Plant response rating, Wild oats",[12]; [22],0
same,Wild oats plant response rating,[12]; [24],0
same,Nutsedge plant response rating,[13]; [17],0
same,Nutsedge plant response rating,[13]; [18],0
same,Nutsedge plant response rating,[13]; [19],0
same,"Plant response rating, Nutsedge",[13]; [20],0
same,"Plant response rating, Nutsedge",[13]; [21],0
same,"Plant response rating, Nutsedge",[13]; [22],0
same,Nutsedge plant response rating,[13]; [23],0
same,Nutsedge plant response rating,[13]; [24],0
same,Rice plant response rating,[14]; [17],0
same,Rice plant response rating,[14]; [25],0
same,Rice plant response rating,[14]; [26],0
same,Rice plant response rating,[14]; [27],0
same,S. Flatsedge plant response rating,[15]; [17],0
same,S. Flatsedge plant response rating,[15]; [26],0
same,S. Flatsedge plant response rating,[15]; [27],4
same,Ducksalad plant response rating,[16]; [17],0
same,Ducksalad plant response rating,[16]; [25],0
same,Ducksalad plant response rating,[16]; [26],0
same,Ducksalad plant response rating,[16]; [27],0
